Measurements from ChEMBL document CHEMBL3871307, “Discovery of Chromane Propionic Acid Analogues as Selective Agonists of GPR120 with in Vivo Activity in Rodents” (ACS Med Chem Lett, 2017).

Key:
[1] = Oral bioavailability in mouse plasma at 30 mg/kg by LC/MS/MS analysis; format: ADME, organism-based
[2] = Oral bioavailability in rat plasma at 2 mg/kg by LC/MS/MS analysis; format: ADME, organism-based
[3] = Intrinsic clearance in rat plasma at 0.1 mg/kg administered as iv casette dose by LC/MS/MS analysis; format: ADME, organism-based; settings: in vivo
[4] = Plasma concentration in C57BL/6 mouse oral glucose tolerance test at 3 mg/kg, po via gavage measured at 3 hrs
[5] = target: Free fatty acid receptor 1 (Mus musculus, UniProt Q76JU9); assay: Agonist activity at mouse GPR40 assessed as increase in IP1 accumulation after 60 mins by HTRF assay; format: functional
[6] = AUC in rhesus monkey plasma at 0.5 mg/kg, iv by LC/MS/MS analysis; format: ADME, organism-based, Macaca mulatta
[7] = Clearance in mouse plasma at 2 mg/kg, iv or 30 mg/kg, po by LC/MS/MS analysis; format: ADME, organism-based
[8] = target: T1, Free fatty acid receptor 4 (Homo sapiens, UniProt Q5NUL3); assay: Agonist activity at human GPR120 short isoform expressed in CHOK1 cells assessed as increase in IP1 accumulation after 60 mins by HTRF assay; format: functional, cell-based, CHO-K1
T1 sequence (Q5NUL3 whole entry): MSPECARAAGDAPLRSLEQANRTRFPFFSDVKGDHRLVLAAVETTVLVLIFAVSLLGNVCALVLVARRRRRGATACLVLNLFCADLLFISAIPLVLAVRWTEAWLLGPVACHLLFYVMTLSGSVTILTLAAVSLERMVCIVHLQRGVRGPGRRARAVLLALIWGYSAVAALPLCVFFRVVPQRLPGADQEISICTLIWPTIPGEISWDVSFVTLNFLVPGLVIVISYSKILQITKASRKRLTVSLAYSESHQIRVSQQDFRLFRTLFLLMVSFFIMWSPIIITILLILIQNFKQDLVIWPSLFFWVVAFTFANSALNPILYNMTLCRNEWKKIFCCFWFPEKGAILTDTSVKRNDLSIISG

[9] = Terminal half life in rat plasma at 1 mg/kg, iv or 2 mg/kg, po by LC/MS/MS analysis; format: ADME, organism-based; settings: read-out: beta t1/2 (converted)
[10] = Inhibition of IKr (unknown origin) expressed in HEK293 cells; format: cell-based, Homo sapiens
[11] = Protein binding in rhesus monkey plasma at 0.5 mg/kg, iv or 1 mg/kg, po by LC/MS/MS analysis; format: ADME, organism-based, Macaca mulatta; settings: read-out: PPB (converted)

Sequence of Free fatty acid receptor 1 (Q76JU9 whole entry): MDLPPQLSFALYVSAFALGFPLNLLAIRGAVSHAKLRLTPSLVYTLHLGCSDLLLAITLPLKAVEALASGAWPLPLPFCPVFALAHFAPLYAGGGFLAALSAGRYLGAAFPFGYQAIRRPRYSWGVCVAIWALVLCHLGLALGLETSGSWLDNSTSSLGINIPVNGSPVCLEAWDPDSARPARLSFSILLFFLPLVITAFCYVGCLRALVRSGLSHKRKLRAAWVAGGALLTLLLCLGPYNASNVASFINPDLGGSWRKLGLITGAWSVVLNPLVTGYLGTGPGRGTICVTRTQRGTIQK

`CO[C@H]1C[C@H](Oc2cc(F)c(F)c(-c3ccc4c(c3)CC[C@H](CCC(=O)O)O4)n2)C1` showed a bioavailability [1] of 76%, a bioavailability [2] of 93% and a CL [3] of 560 mL/min/kg. It also gave a concentration at 3 h [4] of 750 nM, an EC50 [5] of over 10 µM and an AUC [6] of 57.8 µM·h. For the same compound, the clearance [7] was 9.9 mL/min/kg, the EC50 [8] was 0.035 µM and the half-life [9] was 4.6 h. The IC50 [10] was over 60 µM and the fraction unbound [11] was 0.0022.
